According to patent publication US20200017496A1 (priority 2017, published 2020):
Read-outs that look alike come from different tables or passages of the source.

Key:
[1] = test system: Escherichia coli (ECO) isolates; assay: MIC of compounds alone and combined with antibacterials, broth microdilution (CLSI); format: cell-based; details: for MIC ATB in combination: AF1 @ 4 μg/mL; for MIC: Escherichia coli
Summary of the method: (§1)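 Compound MIC, and antibacterial MIC at each fixed compound level, taken by visual inspection as lowest concentration stopping growth. Inoculum: log-phase bacteria, final 5·10^5 CFU/mL, cation-adjusted Mueller-Hinton broth; 16-20 h, 35° C, ambient air.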

[2] = test system: Proteus mirabilis (PMI) isolates; assay: microbe, parasite or virus in culture; format: cell-based; details: for MIC ATB in combination: AF1 @ 4 μg/mL; for MIC: Proteus mirabilis, ATB alone, read-out: MIC
Summary of the method: as §1

SMILES: CO/N=C(\C(=O)N[C@@H]1C(=O)N2C(C(=O)O)=C(COC(N)=O)CS[C@H]12)c1ccco1 [FUR, Cefuroxime]
- MIC ATB in combination ([1]; ECO UFR189): 2 µg/mL
- MIC ATB in combination ([1]; ECO UFR190): 8 µg/mL
- MIC ATB in combination ([1]; ECO UFR191): 8 µg/mL
- MIC ATB in combination ([1]; ECO UFR207): 2 µg/mL
- MIC ATB in combination ([1]; ECO UFR209): 4 µg/mL
- MIC ATB in combination ([1]; ECO UFR210): 2 µg/mL
- MIC ATB in combination ([1]; ECO UFR211): 8 µg/mL
- MIC ATB in combination ([1]; ECO UFR218): 4 µg/mL
- MIC [1]: > 256 µg/mL
- MIC ([1]; strain ECO 4133 (TEM-30, OXA-1), ATB alone): 16 µg/mL
- MIC ([1]; strain ECO 5302 (TEM-1, OXA-1), ATB alone): 32 µg/mL
- MIC ([1]; strain ECO 131119 (TEM-1, OXA-48), ATB alone): 8 µg/mL
- MIC ([1]; strain ECO 180070 (TEM-1, CTX-M-15), ATB alone, read-out: MIC): > 256 µg/mL
- MIC ([1]; strain ECO 190314 (CTX-M-1), ATB alone, read-out: MIC): > 256 µg/mL
- MIC ([1]; strain ECO 190317 (TEM-1, SHV-12, CTX-M-15, OXA-1), ATB alone): > 512 µg/mL
- MIC ([1]; strain ECO 190457 (CTX-M-15, OXA-1), ATB alone, read-out: MIC): > 256 µg/mL
- MIC ([1]; strain ECO 190549 (CTX-M-1), ATB alone, read-out: MIC): > 256 µg/mL
- MIC ([1]; strain ECO 200159 (TEM-1, CTX-M-14), ATB alone, read-out: MIC): > 256 µg/mL
- MIC ([1]; strain ECO 200259 (CTX-M-14), ATB alone, read-out: MIC): > 256 µg/mL
- MIC ([1]; strain ECO 200344 (CTX-M-1), ATB alone, read-out: MIC): > 256 µg/mL
- MIC ([1]; strain ECO 260096 (CTX-M-132), ATB alone, read-out: MIC): > 256 µg/mL
- MIC ([1]; strain ECO 260304 (CTX-M-15), ATB alone, read-out: MIC): > 256 µg/mL
- MIC ([1]; strain ECO 260508 (TEM-1, CTX-M-15, OXA-1), ATB alone, read-out: MIC): > 256 µg/mL
- MIC ([1]; strain ECO RGN238 (OXA-1), ATB alone): 16 µg/mL
- MIC ([1]; strain ECO UFR15 (TEM-1, OXA-48), ATB alone): 16 µg/mL
- MIC ([1]; strain ECO UFR16 (TEM-1, CTX-M-15, OXA-1, OXA-48), ATB alone, read-out: MIC): > 256 µg/mL
- MIC ([1]; strain ECO UFR17 (TEM-1, CTX-M-15, CMY-2, OXA-1, OXA-181), ATB alone, read-out: MIC): > 256 µg/mL
- MIC ([1]; strain ECO UFR18 (CTX-M-15, OXA-204), ATB alone, read-out: MIC): > 256 µg/mL
- MIC ([1]; strain ECO UFR19 (CTX-M-15, CMY-2, OXA-1, OXA-204), ATB alone, read-out: MIC): > 256 µg/mL
- MIC ([1]; strain ECO UFR20 (SHV-1, CTX-M-15, OXA-1, OXA-232), ATB alone, read-out: MIC): > 256 µg/mL
- MIC ([1]; strain ECO UFR74 (SHV-1, DHA-1), ATB alone, read-out: MIC): > 256 µg/mL
- MIC ([1]; strain ECO UFR86 (ompC-, ompF-), ATB alone, read-out: MIC): 64 µg/mL
- MIC ([1]; strain ECO UFR184 (CTX-M-15, CMY-4, OXA-1, OXA-204), ATB alone, read-out: MIC): > 256 µg/mL
- MIC ([1]; strain ECO UFR185 (OXA-48), ATB alone, read-out: MIC): > 256 µg/mL
- MIC ([1]; strain ECO UFR186 (TEM-1, CTX-M-14, OXA-48), ATB alone, read-out: MIC): > 256 µg/mL
- MIC ([1]; strain ECO UFR187 (CTX-M-15, OXA-48), ATB alone, read-out: MIC): > 256 µg/mL
- MIC ([1]; strain ECO UFR189 (TEM-1, CTX-M-15, OXA-48), ATB alone, read-out: MIC): > 256 µg/mL
- MIC ([1]; strain ECO UFR190 (CTX-M-24, OXA-48), ATB alone, read-out: MIC): > 256 µg/mL
- MIC ([1]; strain ECO UFR191 (TEM-1, CTX-M-24, OXA-48), ATB alone, read-out: MIC): > 256 µg/mL
- MIC ([1]; strain ECO UFR207 (CTX-M-15), ATB alone, read-out: MIC): > 256 µg/mL
- MIC ([1]; strain ECO UFR208 (SHV-12), ATB alone, read-out: MIC): > 256 µg/mL
- MIC ([1]; strain ECO UFR209 (TEM-1, CTX-M-15), ATB alone, read-out: MIC): > 256 µg/mL
- MIC ([1]; strain ECO UFR210 (SHV-12), ATB alone, read-out: MIC): > 256 µg/mL
- MIC ([1]; strain ECO UFR212 (CMY-2), ATB alone, read-out: MIC): > 256 µg/mL
- MIC ([1]; strain ECO UFR218 (TEM-1, SHV-1, CTX-M-15), ATB alone, read-out: MIC): > 256 µg/mL
- MIC ATB in combination ([2]; PMI UFR82): 4 µg/mL
- MIC ATB in combination ([2]; PMI UFR120): 1 µg/mL
- MIC ATB in combination ([2]; PMI UFR121): 2 µg/mL
- MIC ATB in combination ([2]; PMI UFR122): 1 µg/mL
- MIC ATB in combination ([2]; PMI UFR123): 1 µg/mL
- MIC ATB in combination ([2]; PMI UFR124): 1 µg/mL
- MIC ATB in combination ([2]; PMI UFR125): 1 µg/mL
- MIC ATB in combination ([2]; PMI UFR126): 1 µg/mL
- MIC ATB in combination ([2]; PMI UFR127): 1 µg/mL
- MIC ATB in combination ([2]; PMI UFR129): 4 µg/mL
- MIC ATB in combination ([2]; PMI UFR130): 4 µg/mL
- MIC ATB in combination ([2]; PMI UFR237): 4 µg/mL
- MIC ([2]; strain PMI UFR82 (CMY-2)): 16 µg/mL
- MIC ([2]; strain PMI UFR120 (TEM-1, SHV-11, CTX-M-14)): > 256 µg/mL
- MIC ([2]; strain PMI UFR121 (TEM-1, TEM-52)): > 256 µg/mL
- MIC ([2]; strain PMI UFR122 (TEM-1, CTX-M-15)): > 256 µg/mL
- MIC ([2]; strain PMI UFR123 (CTX-M-1)): > 256 µg/mL
- MIC ([2]; strain PMI UFR124 (CTX-M-2)): > 256 µg/mL
- MIC ([2]; strain PMI UFR125 (CTX-M-71)): > 256 µg/mL
- MIC ([2]; strain PMI UFR126 (TEM-2, PER-1)): > 256 µg/mL
- MIC ([2]; strain PMI UFR127 (VEB-1)): > 256 µg/mL
- MIC ([2]; strain PMI UFR129 (TEM-1, VEB-6)): > 256 µg/mL
- MIC ([2]; strain PMI UFR130 (CMY-2)): 8 µg/mL
- MIC ([2]; strain PMI UFR237 (VEB-6)): > 256 µg/mL
